Data from patent publication US20230021483A1, “[…] […] METHOD AND CLASSIFICATION OF PHARMACEUTICAL COMPONENTS BY USING TRANSCRIPTOMES” (National Institutes of Biomedical Innovation, Health and …, priority 2016, published 2023).

How the values were obtained:
LV, SP and LNs = experiment: Whole organ transcriptome across organs (adjuvant gene space): gene responses and adjuvant grouping; assay type: in vivo, C57BL/6 mice; conditions: hierarchical clustering; LV, SP and/or LNs
[1] = system: adjuvant-associated biological themes in LV, SP, LN; conditions: LV, ID
In short: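 Per-mouse whole-organ transcriptomes; genes with eij/ei(c)>2.0 tested for theme enrichment via TargetMine (GO, KEGG, Reactome, others), Fisher's exact test, Holm-Bonferroni correction. Themes shared by all three mice kept at p<0.05, using the smallest p. Score per adjuvant-associated term = Σ−log(p) of matching themes.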

## Nc1nc2c(ncn2[C@@H]2O[C@@H]3COP(=O)(O)O[C@H]4[C@@H](O)[C@H](n5cnc6c(=O)[nH]c(N)nc65)O[C@@H]4COP(=O)(O)O[C@H]3[C@H]2O)c(=O)[nH]1 [cdiGMP, Cyclic diguanylate monophosphate]
LV, SP and LNs
  adjuvant group (cluster) within the adjuvant gene space: group (G) 1
[1]
  GO annotation: Cytokine-cytokine receptor interaction (Term: cytokine): 13.8
  GO annotation: Cytokine-cytokine receptor interaction|Endocytosis (Term: cytokine): 33.9
  GO annotation: I-kappaB kinase/NF-kappaB signaling (Term: NF-kappa B signaling pathway): 13.8
  GO annotation: NF-kappa B signaling pathway (Term: NF-kappa B signaling pathway): 15.7
  GO annotation: TNF signaling pathway (Term: TNF signaling pathway): 31.3
  GO annotation: activation of immune response (Term: immune response): 17.9
  GO annotation: activation of innate immune response (Term: innate immune response): 21.2
  GO annotation: acute inflammatory response (Term: inflammatory response): 0
  GO annotation: adaptive immune response (Term: adaptive immune response): 10
  GO annotation: adaptive immune response based on somatic recombination of immune receptors built from immunoglobulin superfamily domains (Term: adaptive immune response): 10.6
  GO annotation: apoptotic process (Term: apoptosis): 12.1
  GO annotation: apoptotic signaling pathway (Term: apoptosis): 0
  GO annotation: cell chemotaxis (Term: chemotaxis): 0
  GO annotation: cell death (Term: cell death): 17.7
  GO annotation: cell migration (Term: migration): 0
  GO annotation: cellular response to cytokine stimulus (Term: cytokine): 38.8
  GO annotation: cellular response to interferon-alpha (Term: IFN alpha): 7.42
  GO annotation: cellular response to stress (Term: stress): 0
  GO annotation: chemokine production (Term: chemokine): 8.52
  GO annotation: chemokine-mediated signaling pathway (Term: chemokine): 5.9
  GO annotation: chemotaxis (Term: chemotaxis): 0
  GO annotation: cytokine biosynthetic process (Term: cytokine): 7.93
  GO annotation: cytokine metabolic process (Term: cytokine): 7.39
  GO annotation: cytokine production (Term: cytokine): 31.3
  GO annotation: cytokine secretion (Term: cytokine): 0
  GO annotation: cytokine-mediated signaling pathway (Term: cytokine): 20
  GO annotation: death (Term: cell death): 12.1
  GO annotation: defense response (Term: defense response): 80.9
  GO annotation: defense response to Gram-positive bacterium (Term: defense response): 7.18
  GO annotation: defense response to bacterium (Term: defense response): 10.5
  GO annotation: defense response to other organism (Term: defense response): 44.1
  GO annotation: defense response to protozoan (Term: defense response): 5.31
  GO annotation: defense response to virus (Term: defense response): 24.6
  GO annotation: granulocyte chemotaxis (Term: chemotaxis): 0
  GO annotation: granulocyte migration (Term: migration): 0
  GO annotation: immune response (Term: immune response): 52.3
  GO annotation: immune response-activating signal transduction (Term: immune response): 19.3
  GO annotation: immune response-regulating signaling pathway (Term: immune response): 23.5
  GO annotation: inflammatory response (Term: inflammatory response): 26.1
  GO annotation: innate immune response (Term: innate immune response): 40.7
  GO annotation: innate immune response-activating signal transduction (Term: innate immune response): 20.3
  GO annotation: interferon-alpha production (Term: IFN alpha): 7.69
  GO annotation: intrinsic apoptotic signaling pathway (Term: apoptosis): 0
  GO annotation: leukocyte chemotaxis (Term: chemotaxis): 0
  GO annotation: leukocyte migration (Term: migration): 0
  GO annotation: leukocyte migration involved in inflammatory response (Term: inflammatory response): 0
  GO annotation: lymphocyte chemotaxis (Term: chemotaxis): 0
  GO annotation: lymphocyte migration (Term: migration): 0
  GO annotation: myeloid leukocyte migration (Term: migration): 0
  GO annotation: negative regulation of apoptotic process (Term: apoptosis): 0
  GO annotation: negative regulation of cell death (Term: cell death): 0
  GO annotation: negative regulation of cytokine production (Term: cytokine): 6.2
  GO annotation: negative regulation of defense response (Term: defense response): 8.05
  GO annotation: negative regulation of immune response (Term: immune response): 6.54
  GO annotation: negative regulation of innate immune response (Term: innate immune response): 10.4
  GO annotation: negative regulation of programmed cell death (Term: cell death): 0
  GO annotation: neutrophil chemotaxis (Term: chemotaxis): 0
  GO annotation: neutrophil migration (Term: migration): 0
  GO annotation: positive regulation of I-kappaB kinase/NF-kappaB signaling (Term: NF-kappa B signaling pathway): 7.15
  GO annotation: positive regulation of adaptive immune response (Term: adaptive immune response): 0
  GO annotation: positive regulation of apoptotic process (Term: apoptosis): 0
  GO annotation: positive regulation of cell death (Term: cell death): 0
  GO annotation: positive regulation of cell migration (Term: migration): 0
  GO annotation: positive regulation of chemokine production (Term: chemokine): 8.31
  GO annotation: positive regulation of chemotaxis (Term: chemotaxis): 0
  GO annotation: positive regulation of cytokine biosynthetic process (Term: cytokine): 3.62
  GO annotation: positive regulation of cytokine production (Term: cytokine): 23.6
  GO annotation: positive regulation of defense response (Term: defense response): 35.8
  GO annotation: positive regulation of immune response (Term: immune response): 24.4
  GO annotation: positive regulation of inflammatory response (Term: inflammatory response): 0
  GO annotation: positive regulation of innate immune response (Term: innate immune response): 22.3
  GO annotation: positive regulation of interferon-alpha production (Term: IFN alpha): 8.97
  GO annotation: positive regulation of leukocyte chemotaxis (Term: chemotaxis): 0
  GO annotation: positive regulation of leukocyte migration (Term: migration): 3.33
  GO annotation: positive regulation of programmed cell death (Term: cell death): 0
  GO annotation: positive regulation of response to wounding (Term: wounding): 0
  GO annotation: positive regulation of tumor necrosis factor superfamily cytokine (Term: cytokine): 0
  GO annotation: production of molecular mediator of immune response (Term: immune response): 0
  GO annotation: programmed cell death (Term: cell death): 14
  GO annotation: regulation of I-kappaB kinase/NF-kappaB signaling (Term: NF-kappa B signaling pathway): 8.16
  GO annotation: regulation of adaptive immune response (Term: adaptive immune response): 8.01
  GO annotation: regulation of adaptive immune response based on somatic recombination of immune receptors built from immunoglobulin superfamily domains (Term: adaptive immune response): 3.64
  GO annotation: regulation of apoptotic process (Term: apoptosis): 4.93
  GO annotation: regulation of apoptotic signaling pathway (Term: apoptosis): 0
  GO annotation: regulation of cell death (Term: cell death): 4.48
  GO annotation: regulation of cell migration (Term: migration): 0
  GO annotation: regulation of chemokine production (Term: chemokine): 9.64
  GO annotation: regulation of chemotaxis (Term: chemotaxis): 0
  GO annotation: regulation of cytokine biosynthetic process (Term: cytokine): 3.81
  GO annotation: regulation of cytokine production (Term: cytokine): 31.6
  GO annotation: regulation of defense response (Term: defense response): 56.5
  GO annotation: regulation of defense response to virus (Term: defense response): 0
  GO annotation: regulation of defense response to virus by host (Term: defense response): 0
  GO annotation: regulation of immune response (Term: immune response): 29.4
  GO annotation: regulation of inflammatory response (Term: inflammatory response): 12.3
  GO annotation: regulation of innate immune response (Term: innate immune response): 33.4
  GO annotation: regulation of interferon-alpha production (Term: IFN alpha): 8.3
  GO annotation: regulation of intrinsic apoptotic signaling pathway (Term: apoptosis): 0
  GO annotation: regulation of leukocyte chemotaxis (Term: chemotaxis): 0
  GO annotation: regulation of leukocyte migration (Term: migration): 0
  GO annotation: regulation of programmed cell death (Term: cell death): 5.36
  GO annotation: regulation of response to stress (Term: stress): 42.9
  GO annotation: regulation of response to wounding (Term: wounding): 10.7
  GO annotation: regulation of tumor necrosis factor superfamily cytokine production (Term: cytokine): 4.03
  GO annotation: response to cytokine (Term: cytokine): 56.3
  GO annotation: response to interferon-alpha (Term: IFN alpha): 12.6
  GO annotation: response to stress (Term: stress): 56.2
  GO annotation: response to wounding (Term: wounding): 11.4
  GO annotation: taxis (Term: chemotaxis): 0
  GO annotation: tumor necrosis factor superfamily cytokine production (Term: cytokine): 3.79
  IFN beta: cellular response to interferon-beta: 23.1
  IFN beta: interferon-beta production: 8.61
  IFN beta: positive regulation of interferon-beta production: 13.2
  IFN beta: regulation of interferon-beta production: 9.22
  IFN beta: response to interferon-beta: 26.5
  IFN gamma: cellular response to interferon-gamma: 10.1
  IFN gamma: interferon-gamma production: 5.35
  IFN gamma: regulation of interferon-gamma production: 0
  IFN gamma: response to interferon-gamma: 10.8
  interleukin-6: interleukin-6 production: 7.8
  interleukin-6: positive regulation of interleukin-6 production: 0
  interleukin-6: regulation of interleukin-6 production: 8.27
  interleukin-12: interleukin-12 production: 6.51
  interleukin-12: positive regulation of interleukin-12 production: 0
  interleukin-12: regulation of interleukin-12 production: 6.99
